Assay results from US20100311683A1, “CYTIDINE ANALOGS FOR TREATMENT OF MYELODYSPLASTIC SYNDROMES” (priority 2007, published 2010).
Like-named read-outs stand apart in the source and are kept apart here.

What was measured:
[1] = system: patients with hematologic disorders, predominantly low-risk MDS; assay: AVIDA longitudinal registry of patients receiving azacitidine (transfusion independence); type: in vivo, human
Excerpt: The study assessed usage patterns and transfusion requirements in patients enrolled in AVIDA, a longitudinal registry of patients with hematologic disorders receiving azacitidine, to further the understanding of current azacitidine treatment patterns in the community, identify common care procedures and concomitant treatments, and document transfusion requirements. Baseline demographics and disease characteristics were obtained at enrollment.

[2] = system: patients older than 55 years of age with AML; details: patients older than 55 years with AML, prior retrospective analysis; cited from earlier work
MDS patients = details: for Grade 3/4 AE: Anemia / Grade 3/4 AE: Candida Sepsis / Grade 3/4 AE: Cellulitis / Grade 3/4 AE: Epistaxis / Grade 3/4 AE: Febrile neutropenia / Grade 3/4 AE: GI hemorrhage / Grade 3/4 AE: Hematologic Disorders / Grade 3/4 AE: Hemorrhagic Events / Grade 3/4 AE: Hemorrhagic anemia / Grade 3/4 AE: Infections / Grade 3/4 AE: Leukopenia / Grade 3/4 AE: Neutropenia / Grade 3/4 AE: Pneumonia / Grade 3/4 AE: Rectal hemorrhage / Grade 3/4 AE: Thrombocytopenia / Grade 3/4 AE: Urinary tract infection / Grade 3/4 AE: ≥1 Adverse Event: N=50

## Nc1ncn([C@@H]2O[C@H](CO)[C@@H](O)[C@H]2O)c(=O)n1 [azacitidine, 4-amino-1-β-D-ribofuranosyl-1,3,5-triazin-2(1H)-one]
[1]; 16/43, at least 2 cycles of azacitidine
  patients with a history of transfusions who achieved transfusion-independence: 37%
[1]; 22/27, at least 2 cycles of azacitidine
  patients without a history of transfusion who achieved transfusion independence: 81%
[1]; patients with a history of transfusions
  median cycles to transfusion independence: 6 cycles
[1]; patients without a history of transfusion
  median cycles to transfusion independence: 4 cycles
[2]
  overall response rate: 60%
MDS patients; AZA 5 (75 mg/m2/d x5d)
  FAB low-risk patients RBC transfusion independent at baseline who remained independent during the study: 64%
  RBC transfusion-dependent patients who achieved and retained independence at the end of cycle 6: 63%
  evaluable patients RBC transfusion independent at baseline who remained independent during the study: 68%
  mean duration of RBC transfusion independence: 109 days
  onset of HI within the first 3 cycles: 96%
  patients with at least 1 treatment-emergent AE that led to study discontinuation: 14%
  patients with bilineage HI: 10%
  patients with serious AEs: 30%
  Grade 3/4 AE: Anemia: 5 (10) %
  Grade 3/4 AE: Candida Sepsis: 1 (2) %
  Grade 3/4 AE: Cellulitis: 1 (2) %
  Grade 3/4 AE: Epistaxis: 0%
  Grade 3/4 AE: Febrile neutropenia: 1 (2) %
  Grade 3/4 AE: GI hemorrhage: 0%
  Grade 3/4 AE: Hematologic Disorders: 17 (34) %
  Grade 3/4 AE: Hemorrhagic Events: 1 (2) %
  Grade 3/4 AE: Hemorrhagic anemia: 1 n (%)
  Grade 3/4 AE: Infections: 5 (10) %
  Grade 3/4 AE: Leukopenia: 4 (8) %
  Grade 3/4 AE: Neutropenia: 11 (22) %
  Grade 3/4 AE: Pneumonia: 1 (2) %
  Grade 3/4 AE: Rectal hemorrhage: 0%
  Grade 3/4 AE: Thrombocytopenia: 6 (12) %
  Grade 3/4 AE: Urinary tract infection: 0%
  Grade 3/4 AE: ≥1 Adverse Event: 29 (58) %
MDS patients; AZA 5 (75 mg/m2/d x5d), N=49
  Any HI (major and minor): 27 (55) [40, 69] %
  Erythroid Major HI (IWG 2000), evaluable patients: 18 (37) [23, 52] %
  Erythroid Minor HI: 1 (2) [0.1, 11] %
  Neutrophil Major HI: 4 (8) [40, 100] %
  Neutrophil Minor HI: 2 (4) [0.5, 14] %
  Platelet Major HI: 9 (18) [9, 32] %
  Platelet Minor HI: 2 (4) [0.5, 14] %
MDS patients; AZA 5 (75 mg/m2/d x5d), n=28
  onset of IWG-defined HI in Cycle 1: 15 (54) %
  onset of IWG-defined HI in Cycle 2: 10 (36) %
  onset of IWG-defined HI in Cycle 3: 2 (7) %
  onset of IWG-defined HI in Cycle 4: 1 (4) %
  onset of IWG-defined HI in Cycle 5: 0%
  onset of IWG-defined HI in Cycle 6: 0%
MDS patients; AZA 5-2-2 (75 mg/m2/d)
  FAB low-risk patients RBC transfusion independent at baseline who remained independent during the study: 75%
  RBC transfusion-dependent patients who achieved and retained independence at the end of cycle 6: 100%
  evaluable patients RBC transfusion independent at baseline who remained independent during the study: 67%
  mean duration of RBC transfusion independence: 135 days
  onset of HI within the first 3 cycles: 87%
  patients with at least 1 treatment-emergent AE that led to study discontinuation: 18%
  patients with bilineage HI: 11%
  patients with serious AEs: 54%
  Grade 3/4 AE: Anemia: 12 (24) %
  Grade 3/4 AE: Candida Sepsis: 0%
  Grade 3/4 AE: Cellulitis: 2 (4) %
  Grade 3/4 AE: Epistaxis: 1 (2) %
  Grade 3/4 AE: Febrile neutropenia: 4 (8) %
  Grade 3/4 AE: GI hemorrhage: 1 (2) %
  Grade 3/4 AE: Hematologic Disorders: 33 (66) %
  Grade 3/4 AE: Hemorrhagic Events: 4 (8) %
  Grade 3/4 AE: Hemorrhagic anemia: 0 n (%)
  Grade 3/4 AE: Infections: 11 (22) %
  Grade 3/4 AE: Leukopenia: 7 (14) %
  Grade 3/4 AE: Neutropenia: 21 (42) %
  Grade 3/4 AE: Pneumonia: 0%
  Grade 3/4 AE: Rectal hemorrhage: 0%
  Grade 3/4 AE: Thrombocytopenia: 13 (26) %
  Grade 3/4 AE: Urinary tract infection: 0%
  Grade 3/4 AE: ≥1 Adverse Event: 42 (84) %
MDS patients; AZA 5-2-2 (75 mg/m2/d), N=46
  Any HI (major and minor): 20 (44) [29, 59] %
  Erythroid Major HI (IWG 2000), evaluable patients: 15 (33) [20, 48] %
  Erythroid Minor HI: 1 (2) [0.1, 12] %
  Neutrophil Major HI: 3 (7) [29, 100] %
  Neutrophil Minor HI: 0 [0, 8] %
  Platelet Major HI: 10 (22) [11, 36] %
  Platelet Minor HI: 0 [0, 8] %
